In assay [1] the target is T1, Mu-type opioid receptor (Homo sapiens, UniProt P35372). The experiment in a line: Displacement of [3H]DAMGO from mu opioid receptor expressed in CHO cells. The class given is cell-based. In general terms: Displacement assays read how much labelled ligand stays bound in the presence of the test substance.
The target of assay [2] is T2, Delta-type opioid receptor (Homo sapiens, UniProt P41143). In words: Displacement of [3H]naltrindole from delta opioid receptor expressed in CHO cells. The assay is classed as cell-based.
T2 sequence (P41143 whole entry): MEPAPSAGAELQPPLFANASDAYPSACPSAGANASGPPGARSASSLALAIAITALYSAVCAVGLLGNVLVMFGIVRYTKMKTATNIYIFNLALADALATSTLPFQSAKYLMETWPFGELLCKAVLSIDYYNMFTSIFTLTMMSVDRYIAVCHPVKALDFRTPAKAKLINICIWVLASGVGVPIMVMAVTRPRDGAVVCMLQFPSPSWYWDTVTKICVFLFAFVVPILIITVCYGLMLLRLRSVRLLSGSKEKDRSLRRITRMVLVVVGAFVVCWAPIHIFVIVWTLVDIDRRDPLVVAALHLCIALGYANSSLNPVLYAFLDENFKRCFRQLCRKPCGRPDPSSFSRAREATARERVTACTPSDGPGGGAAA
Assay [3] deals with T3, Kappa-type opioid receptor (Homo sapiens, UniProt P41145). In words: biochemical. The assay is classed as cell-based, CHO.
T3 sequence (P41145 whole entry): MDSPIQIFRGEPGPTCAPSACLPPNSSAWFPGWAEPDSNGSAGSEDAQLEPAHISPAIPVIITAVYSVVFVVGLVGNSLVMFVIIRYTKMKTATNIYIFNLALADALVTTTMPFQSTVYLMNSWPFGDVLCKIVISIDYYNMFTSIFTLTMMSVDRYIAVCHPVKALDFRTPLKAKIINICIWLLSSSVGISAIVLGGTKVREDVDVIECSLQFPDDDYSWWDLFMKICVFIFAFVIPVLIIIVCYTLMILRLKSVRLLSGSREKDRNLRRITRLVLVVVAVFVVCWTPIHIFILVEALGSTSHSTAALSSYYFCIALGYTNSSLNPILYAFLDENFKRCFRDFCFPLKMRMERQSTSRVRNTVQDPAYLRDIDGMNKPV
Description: Displacement of [3H]U-69593 from kappa opioid receptor expressed in CHO cells
The target in assay [4] is T1, Mu-type opioid receptor. In words: Agonist activity at human mu opioid receptor expressed in CHO cell membrane by [35S]GTPgammaS binding assay. The assay is classed as functional, cell membranes.
For assay [5], the target named is T3, Kappa-type opioid receptor. In words: Agonist activity at human kappa opioid receptor expressed in CHO cell membrane by [35S]GTP-gamma-S binding assay. The class given is functional, cell membranes. (GTPγS is a poorly hydrolysed GTP analogue; its binding reports G protein activation.)
For assay [6], the target named is T1, Mu-type opioid receptor. In words: Antagonist activity at human mu opioid receptor expressed in CHO cell membrane assessed as inhibition of DAMGO induced [35S]GTP-gamma-S binding. The assay is classed as functional, cell membranes.
Assay [7] concerns the target T3, Kappa-type opioid receptor. In words: Antagonist activity at human kappa opioid receptor expressed in CHO cell membrane assessed as inhibition of U50,488 induced [35S]GTPgammaS binding. The assay is classed as functional, cell membranes.
The target in assay [8] is T2, Delta-type opioid receptor. The experiment in a line: Agonist activity at human delta opioid receptor expressed in CHO cell membrane by [35S]GTP-gamma-S binding assay. The assay is classed as functional, cell membranes.
Assay [9] concerns the target T2, Delta-type opioid receptor. In words: Antagonist activity at human delta opioid receptor expressed in CHO cell membrane assessed as inhibition of SNC80 induced [35S]GTPgammaS binding. The assay is classed as functional, cell membranes.
Assay [10] addresses T1, Mu-type opioid receptor. The experiment in a line: Antagonist activity at human mu opioid receptor expressed in CHO cell membrane assessed as inhibition of DAMGO induced [35S]GTP-gamma-S binding at 10 uM. The class given is functional, cell membranes.

Calls of active or inactive are those of the source. No cut-off for these calls is given here.

T1 sequence (P35372 whole entry): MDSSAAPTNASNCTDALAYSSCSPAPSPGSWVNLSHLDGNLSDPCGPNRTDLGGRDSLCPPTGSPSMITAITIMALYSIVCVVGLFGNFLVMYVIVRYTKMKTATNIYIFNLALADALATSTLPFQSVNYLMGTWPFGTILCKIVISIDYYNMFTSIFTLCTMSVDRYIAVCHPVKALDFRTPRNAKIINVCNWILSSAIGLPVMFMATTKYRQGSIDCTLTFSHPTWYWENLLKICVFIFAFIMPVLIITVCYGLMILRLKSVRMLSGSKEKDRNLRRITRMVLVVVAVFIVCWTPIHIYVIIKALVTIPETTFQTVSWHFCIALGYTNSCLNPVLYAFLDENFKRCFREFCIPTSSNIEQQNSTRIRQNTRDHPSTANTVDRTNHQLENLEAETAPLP

Broadly, the Ki is a measure of affinity in units of concentration, obtained from inhibition or displacement. Higher therefore signals lower affinity. For orientation: EC50 means the concentration needed to bring the measured effect to its halfway point. Low readings indicate greater potency, high ones weaker potency. The Emax is the greatest response seen or fitted, relative to the assay's reference. As a reminder, the IC50 is the midpoint of a concentration-inhibition curve. Consider `C[C@H]1C2Cc3ccc(C(=O)NCCCc4ccc5ccccc5c4)cc3[C@@]1(C)CCN2CC1CC1`, for which the results for the Ki in assay [1], in [2] and in assay [3] were 1.9 nM, 18 nM and 0.18 nM, respectively. The EC50 in assay [4] was 24 nM; in assay [5], 6.3 nM. Also, the Emax was 31% in assay [4] and 98% in assay [5]. Moreover, the IC50 in [6] is 320 nM. For the same molecule, in assay [6], the Imax was 78%. Also, in assay [7], the result was inactive.
On to `C[C@H]1C2Cc3ccc(C(=O)NCCc4cccc(-c5ccccc5)c4)cc3[C@@]1(C)CCN2CC1CC1`, for which the Ki in [1] came out at 0.95 nM; in [2], 5.9 nM. In addition, the EC50 in assay [4] came to 6.8 nM; in assay [8] it was 18 nM; in assay [5], 12 nM. Moreover, the maximum response (Emax) worked out at 41% in [4], 43% in assay [8] and 95% in assay [5]. The outcome in assay [6], in assay [9] and in [7] was inactive. Besides, the Imax in [10] amounted to 72%.
On to `C[C@H]1C2Cc3ccc(C(=O)NCCc4cccc(Br)c4)cc3[C@@]1(C)CCN2CC1CC1`, for which the Ki was determined as 0.35 nM in assay [1], 3.5 nM in assay [2] and 0.063 nM in assay [3]. The EC50 in [4] was 5.6 nM; in assay [8], 14 nM; in [5], 4.6 nM. Besides, the Emax was 24% in assay [4], 85% in [8] and 110% in assay [5]. The IC50 in assay [6] was 230 nM. The Imax in assay [6] came out at 85%. Also, the outcome in [9] and in assay [7] was inactive.
Regarding `C[C@H]1C2Cc3ccc(C(=O)NCCc4cccc5ccccc45)cc3[C@@]1(C)CCN2CC1CC1`, the Ki was found to be 4.2 nM in assay [1], 24 nM in [2] and 2.4 nM in assay [3].
`COc1ccc(-c2ccc(CCNC(=O)c3ccc4c(c3)[C@@]3(C)CCN(CC5CC5)C(C4)[C@@H]3C)cc2)cc1`: the EC50 in assay [4] stood at 11 nM; in [8] it was 0.68 nM; in assay [5] it was 1.1 nM. The Emax worked out at 27% in assay [4], 70% in assay [8] and 98% in assay [5]. For the same molecule, the IC50 in assay [6] turned out to be 24 nM. For the same molecule, the Imax in [6] is 82%. In addition, the result in assay [9] and in assay [7] was inactive.
Turning to `C[C@H]1C2Cc3ccc(C(=O)NCCc4ccc5ccccc5c4)cc3[C@@]1(C)CCN2CC1CC1`, the Ki amounted to 0.18 nM in assay [1], 0.9 nM in [2] and 0.2 nM in [3].
The like results for `C[C@H]1C2Cc3ccc(C(=O)NCCc4ccccc4Br)cc3[C@@]1(C)CCN2CC1CC1` were, in that order, 4 nM, 150 nM and 19 nM.
The like results for `C[C@H]1C2Cc3ccc(C(=O)NCc4cccc5ccccc45)cc3[C@@]1(C)CCN2CC1CC1` were, in that order, 2.5 nM, 52 nM and 18 nM.
Take `C[C@H]1C2Cc3ccc(C(=O)NCCc4ccc(-c5ccc(Cl)cc5)cc4)cc3[C@@]1(C)CCN2CC1CC1`: the EC50 in [4] worked out at 2.5 nM; in [8], 2 nM; in assay [5], 6.4 nM. Besides, the Emax was found to be 31% in assay [4], 45% in [8] and 96% in assay [5]. Besides, the outcome in assay [6], in [9] and in assay [7] was inactive. Also, in [10], the Imax was 71%.
In the case of `C[C@H]1C2Cc3ccc(C(=O)NCCc4ccc(-c5ccc(Cl)c(Cl)c5)cc4)cc3[C@@]1(C)CCN2CC1CC1`, the figures for the Ki in [1], in [2] and in assay [3] were 0.98 nM, 2.5 nM and 1.1 nM, respectively.
For `C[C@H]1C2Cc3ccc(C(=O)NCc4ccc5ccccc5c4)cc3[C@@]1(C)CCN2CC1CC1`, in that order: 1.3 nM, 31 nM and 19 nM.
On to `C[C@H]1C2Cc3ccc(C(=O)NCCc4ccc(Br)cc4)cc3[C@@]1(C)CCN2CC1CC1`, for which the Ki was found to be 2.4 nM in assay [1], 2.5 nM in assay [2] and 0.38 nM in assay [3]. Besides, the EC50 in [4] turned out to be 16 nM; in assay [8], 20 nM; in assay [5], 20 nM. In addition, the Emax in assay [4] is 73%; in assay [8] it was 120%; in assay [5] it was 110%. Further, the result in [6], in assay [9] and in assay [7] was inactive.
Regarding `C[C@H]1C2Cc3ccc(C(=O)NCCc4ccccc4-c4ccccc4)cc3[C@@]1(C)CCN2CC1CC1`, the figures for the Ki in [1], in assay [2] and in [3] were 6.7 nM, 21 nM and 2.4 nM, respectively. In addition, the EC50 came out at 12 nM in [4] and 42 nM in assay [5]. Also, the Emax in assay [4] is 36%; in [5] it was 97%. In addition, the Imax in [10] is 73%.
In the case of `C[C@H]1[C@H]2Cc3ccc(O)cc3[C@@]1(C)CCN2CC1CC1`, the Ki in assay [2] turned out to be 2 nM; in assay [3], 0.07 nM.
With `C[C@H]1C2Cc3ccc(C(=O)NCCCc4cccc5ccccc45)cc3[C@@]1(C)CCN2CC1CC1`, the figures for the Ki in [1], in assay [2] and in [3] were 2.4 nM, 18 nM and 1.9 nM, respectively.

(Values after ChEMBL document CHEMBL1140563, “Redefining the structure-activity relationships of 2,6-methano-3-benzazocines. 5. Opioid receptor binding properties of N-((4'-phenyl)-phenethyl) analogues of 8-CAC” (Bioorg Med Chem Lett, 2007).)
